Assay results: ChEMBL document CHEMBL1821675, “The selective P-TEFb inhibitor CAN508 targets angiogenesis” (Eur J Med Chem, 2011)
Activity calls are given as the source filed them. The calls are words filed in the database; no cut-off is given here.

How the values were obtained:
SNB-19 = assay: Cytotoxicity against human SNB19 cells; format: functional
SW-620 = assay: Cytotoxicity against human SW620 cells; format: functional
NCI-H322M = assay: Cytotoxicity against human NCI-H322M cells; format: functional
MOLT-4 = assay: Cytotoxicity against human MOLT4 cells; format: functional
LOX IMVI = assay: Cytotoxicity against human LOXIMVI cells; format: functional
SK-MEL-2 = assay: Cytotoxicity against human SK-MEL-2 cells; format: functional
NCI/ADR-RES = assay: Cytotoxicity against human NCI/ADR-RES cells; format: functional
DU-145 [1] = assay: Cytotoxicity against human DU145 cells; format: functional
[2] = Antiangiogenic activity in VEGF-stimulated HMEC1 assessed as reduction in total length of tube at 20 uM after 16 hrs by photographic analysis; format: functional, Homo sapiens, HMEC-1; parameters: scale not given: the % may be the effect or the level left
HMEC-1 = assay: Antiangiogenic activity in VEGF-stimulated HMEC1 assessed as reduction in tube nodes after 16 hrs by photographic analysis; format: functional; conditions: Homo sapiens
DU-145 [3] = assay: Decrease in VEGF expression in human DU145 cells at >10 uM after 24 hrs by sandwich ELISA; format: functional, cell-based
[4] = target: Cyclin-dependent kinase 7 (Homo sapiens) (UniProt P50613); assay: Inhibition of CDK7-catalyzed RNA polymerase 2 phosphorylation at Ser5 in human MCF7 cells at 5 to 40 uM after 2 hrs by immunoblotting; format: cell-based
[5] = target: Serine/threonine-protein kinase BRSK2 (Homo sapiens) (UniProt Q8IWQ3); assay: Inhibition of BRSK2 assessed as residual activity at 10 uM by radioactivity assay in presence of 50 uM ATP
[6] = target: Calcium/calmodulin-dependent protein kinase kinase 2 (Homo sapiens) (UniProt Q96RR4); assay: Inhibition of CAMKKbeta assessed as residual activity at 10 uM by radioactivity assay in presence of 20 uM ATP
Sequence of Calcium/calmodulin-dependent protein kinase kinase 2 (Homo sapiens) (Q96RR4 2-588 limits assumed): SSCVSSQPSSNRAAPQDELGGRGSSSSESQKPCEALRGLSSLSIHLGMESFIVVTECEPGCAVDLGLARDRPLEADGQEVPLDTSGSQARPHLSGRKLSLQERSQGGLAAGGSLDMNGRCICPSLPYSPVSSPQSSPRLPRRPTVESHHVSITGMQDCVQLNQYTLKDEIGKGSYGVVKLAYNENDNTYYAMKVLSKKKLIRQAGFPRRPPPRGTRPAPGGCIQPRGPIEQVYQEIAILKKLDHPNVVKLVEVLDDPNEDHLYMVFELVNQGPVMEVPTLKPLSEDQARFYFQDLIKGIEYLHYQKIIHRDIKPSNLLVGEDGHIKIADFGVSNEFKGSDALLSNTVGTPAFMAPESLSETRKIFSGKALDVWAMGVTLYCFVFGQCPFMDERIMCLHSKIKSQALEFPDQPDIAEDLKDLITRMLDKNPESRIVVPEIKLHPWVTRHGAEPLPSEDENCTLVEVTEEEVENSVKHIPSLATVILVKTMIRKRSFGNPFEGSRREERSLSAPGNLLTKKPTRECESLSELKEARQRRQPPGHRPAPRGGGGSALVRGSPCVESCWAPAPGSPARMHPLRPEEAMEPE

[7] = target: Tyrosine-protein kinase CSK (Homo sapiens) (UniProt P41240); assay: Inhibition of CSK assessed as residual activity at 10 uM by radioactivity assay in presence of 20 uM ATP
[8] = target: Mitogen-activated protein kinase 15 (Homo sapiens) (UniProt Q8TD08); assay: Inhibition of ERK8 assessed as residual activity at 10 uM by radioactivity assay in presence of 5 uM ATP
[9] = target: Fibroblast growth factor receptor 1 (Homo sapiens) (UniProt P11362); assay: Inhibition of FGF-R1 assessed as residual activity at 10 uM by radioactivity assay in presence of 20 uM ATP
Sequence of Fibroblast growth factor receptor 1 (Homo sapiens) (P11362 22-822 limits assumed): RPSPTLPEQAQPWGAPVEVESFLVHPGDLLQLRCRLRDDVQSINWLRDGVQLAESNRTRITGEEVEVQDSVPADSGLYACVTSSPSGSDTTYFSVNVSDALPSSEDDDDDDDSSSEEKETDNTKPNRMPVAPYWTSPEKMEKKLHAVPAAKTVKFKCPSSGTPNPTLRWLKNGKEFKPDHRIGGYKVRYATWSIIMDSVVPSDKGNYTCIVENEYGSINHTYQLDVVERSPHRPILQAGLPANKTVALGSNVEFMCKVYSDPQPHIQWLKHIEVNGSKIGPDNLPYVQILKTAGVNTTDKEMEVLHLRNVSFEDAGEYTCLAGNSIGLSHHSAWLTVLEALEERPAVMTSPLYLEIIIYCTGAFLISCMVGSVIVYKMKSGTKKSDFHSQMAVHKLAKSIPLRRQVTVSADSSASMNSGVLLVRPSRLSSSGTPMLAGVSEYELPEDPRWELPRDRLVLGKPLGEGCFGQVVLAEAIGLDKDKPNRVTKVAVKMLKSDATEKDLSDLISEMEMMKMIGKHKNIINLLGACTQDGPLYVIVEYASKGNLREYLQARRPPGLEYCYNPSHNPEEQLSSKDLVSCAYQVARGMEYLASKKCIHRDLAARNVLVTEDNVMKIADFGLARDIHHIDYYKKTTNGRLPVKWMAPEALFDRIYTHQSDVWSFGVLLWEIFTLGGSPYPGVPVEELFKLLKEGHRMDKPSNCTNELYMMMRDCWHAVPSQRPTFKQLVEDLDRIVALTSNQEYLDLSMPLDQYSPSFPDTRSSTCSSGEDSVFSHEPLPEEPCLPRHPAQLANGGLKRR

[10] = target: Serine/threonine-protein kinase Chk2 (Homo sapiens) (UniProt O96017); assay: Inhibition of CHK2 assessed as residual activity at 10 uM by radioactivity assay in presence of 20 uM ATP
[11] = target: Insulin-like growth factor 1 receptor (Homo sapiens) (UniProt P08069); assay: Inhibition of IGF-1R assessed as residual activity at 10 uM by radioactivity assay in presence of 5 uM ATP
[12] = target: Inhibitor of nuclear factor kappa-B kinase subunit epsilon (Homo sapiens) (UniProt Q14164); assay: Inhibition of IKK-epsilon assessed as residual activity at 10 uM by radioactivity assay in presence of 50 uM ATP
Sequence of Inhibitor of nuclear factor kappa-B kinase subunit epsilon (Homo sapiens) (Q14164 whole entry): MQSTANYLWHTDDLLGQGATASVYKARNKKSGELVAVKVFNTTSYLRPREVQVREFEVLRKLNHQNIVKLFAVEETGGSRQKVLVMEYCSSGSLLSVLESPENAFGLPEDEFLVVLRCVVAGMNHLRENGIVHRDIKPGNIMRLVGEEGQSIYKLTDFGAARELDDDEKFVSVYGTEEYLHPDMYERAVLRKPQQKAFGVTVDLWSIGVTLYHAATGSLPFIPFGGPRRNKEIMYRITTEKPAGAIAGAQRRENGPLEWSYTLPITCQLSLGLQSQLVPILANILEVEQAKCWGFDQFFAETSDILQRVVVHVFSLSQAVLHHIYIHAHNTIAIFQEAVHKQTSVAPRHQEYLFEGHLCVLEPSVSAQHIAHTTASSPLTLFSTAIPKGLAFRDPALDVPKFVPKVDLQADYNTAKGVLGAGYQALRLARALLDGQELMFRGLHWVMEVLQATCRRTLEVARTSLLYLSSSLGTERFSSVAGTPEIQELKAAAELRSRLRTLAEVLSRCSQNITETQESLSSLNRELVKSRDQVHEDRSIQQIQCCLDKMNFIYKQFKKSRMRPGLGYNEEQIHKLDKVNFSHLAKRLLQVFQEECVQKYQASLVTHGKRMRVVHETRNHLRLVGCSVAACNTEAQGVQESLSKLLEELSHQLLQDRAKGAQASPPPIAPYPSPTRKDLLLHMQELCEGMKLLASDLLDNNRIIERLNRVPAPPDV

[13] = target: Insulin receptor-related protein (Homo sapiens) (UniProt P14616); assay: Inhibition of IRR assessed as residual activity at 10 uM by radioactivity assay in presence of 5 uM ATP
Sequence of Insulin receptor-related protein (Homo sapiens) (P14616 27-742 limits assumed): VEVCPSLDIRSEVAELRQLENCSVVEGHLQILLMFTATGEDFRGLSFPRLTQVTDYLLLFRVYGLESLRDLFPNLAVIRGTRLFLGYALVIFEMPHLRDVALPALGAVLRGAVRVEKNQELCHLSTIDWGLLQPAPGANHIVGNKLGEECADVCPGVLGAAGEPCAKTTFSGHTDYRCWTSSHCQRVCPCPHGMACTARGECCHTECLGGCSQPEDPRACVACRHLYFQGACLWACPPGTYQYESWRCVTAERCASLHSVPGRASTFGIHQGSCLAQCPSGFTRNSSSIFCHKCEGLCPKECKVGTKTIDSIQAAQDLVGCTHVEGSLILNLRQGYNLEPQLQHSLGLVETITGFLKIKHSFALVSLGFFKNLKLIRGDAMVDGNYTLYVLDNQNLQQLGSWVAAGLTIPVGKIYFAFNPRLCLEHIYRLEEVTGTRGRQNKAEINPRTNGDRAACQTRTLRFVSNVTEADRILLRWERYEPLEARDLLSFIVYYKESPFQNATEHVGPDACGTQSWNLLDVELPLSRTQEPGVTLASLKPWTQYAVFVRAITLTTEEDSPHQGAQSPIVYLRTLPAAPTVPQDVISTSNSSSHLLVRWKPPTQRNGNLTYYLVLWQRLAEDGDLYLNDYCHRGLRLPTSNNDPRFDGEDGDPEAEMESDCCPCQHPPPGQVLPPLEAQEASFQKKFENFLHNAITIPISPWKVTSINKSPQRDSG
Sequence of Insulin receptor-related protein (Homo sapiens) (P14616 747-1297 limits assumed): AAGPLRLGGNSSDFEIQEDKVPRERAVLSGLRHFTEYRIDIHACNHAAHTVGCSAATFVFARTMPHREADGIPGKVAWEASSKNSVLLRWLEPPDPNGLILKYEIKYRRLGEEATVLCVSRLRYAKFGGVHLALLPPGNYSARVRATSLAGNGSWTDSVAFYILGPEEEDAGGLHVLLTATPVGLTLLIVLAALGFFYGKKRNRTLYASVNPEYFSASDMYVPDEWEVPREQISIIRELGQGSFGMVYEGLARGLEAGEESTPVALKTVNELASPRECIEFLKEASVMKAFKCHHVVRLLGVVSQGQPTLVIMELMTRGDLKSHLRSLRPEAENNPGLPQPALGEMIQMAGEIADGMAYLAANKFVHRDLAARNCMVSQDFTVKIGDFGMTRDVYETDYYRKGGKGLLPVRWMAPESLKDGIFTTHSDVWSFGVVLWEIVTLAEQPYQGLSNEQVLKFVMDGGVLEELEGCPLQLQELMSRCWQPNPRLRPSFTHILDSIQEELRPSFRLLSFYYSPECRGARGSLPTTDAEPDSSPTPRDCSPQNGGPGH

[14] = target: Tyrosine-protein kinase Lck (Homo sapiens) (UniProt P06239); assay: Inhibition of Lck assessed as residual activity at 10 uM by radioactivity assay in presence of 50 uM ATP
[15] = target: Mitogen-activated protein kinase 9 (Homo sapiens) (UniProt P45984); assay: Inhibition of JNK2alpha2 assessed as residual activity at 10 uM by radioactivity assay in presence of 20 uM ATP
Sequence of Mitogen-activated protein kinase 9 (Homo sapiens) (P45984 whole entry, looked up): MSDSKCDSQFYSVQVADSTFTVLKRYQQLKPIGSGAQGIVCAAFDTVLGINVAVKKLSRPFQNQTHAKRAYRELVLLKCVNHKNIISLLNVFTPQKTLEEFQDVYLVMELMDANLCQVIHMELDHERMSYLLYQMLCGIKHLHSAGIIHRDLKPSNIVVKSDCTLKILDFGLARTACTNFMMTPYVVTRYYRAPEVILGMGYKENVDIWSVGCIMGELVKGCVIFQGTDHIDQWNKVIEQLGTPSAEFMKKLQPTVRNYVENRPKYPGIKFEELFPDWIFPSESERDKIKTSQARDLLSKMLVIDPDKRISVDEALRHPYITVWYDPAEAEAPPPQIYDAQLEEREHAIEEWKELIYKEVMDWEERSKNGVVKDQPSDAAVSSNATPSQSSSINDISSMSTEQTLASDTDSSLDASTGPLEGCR

[16] = target: Serine/threonine-protein kinase STK11 (Homo sapiens) (UniProt Q15831); assay: Inhibition of LKB1 assessed as residual activity at 10 uM by radioactivity assay in presence of 20 uM ATP
[17] = target: MAP kinase-activated protein kinase 3 (Homo sapiens) (UniProt Q16644); assay: Inhibition of MAPKAP-K3 assessed as residual activity at 10 uM by radioactivity assay in presence of 20 uM ATP
Sequence of MAP kinase-activated protein kinase 3 (Homo sapiens) (Q16644 whole entry, looked up): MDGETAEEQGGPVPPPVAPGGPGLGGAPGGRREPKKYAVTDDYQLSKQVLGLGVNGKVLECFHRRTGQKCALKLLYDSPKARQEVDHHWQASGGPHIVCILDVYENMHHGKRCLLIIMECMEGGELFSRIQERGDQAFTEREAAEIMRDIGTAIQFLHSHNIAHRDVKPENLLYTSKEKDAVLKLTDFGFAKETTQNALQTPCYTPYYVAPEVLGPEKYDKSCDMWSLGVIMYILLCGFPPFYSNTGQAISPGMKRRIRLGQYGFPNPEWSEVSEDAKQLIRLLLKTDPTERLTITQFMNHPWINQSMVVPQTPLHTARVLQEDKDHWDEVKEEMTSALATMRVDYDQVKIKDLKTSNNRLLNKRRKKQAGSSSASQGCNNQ

[18] = target: Maternal embryonic leucine zipper kinase (Homo sapiens) (UniProt Q14680); assay: Inhibition of MELK assessed as residual activity at 10 uM by radioactivity assay in presence of 50 uM ATP
[19] = target: Serine/threonine-protein kinase 26 (Homo sapiens) (UniProt Q9P289); assay: Inhibition of MST4 assessed as residual activity at 10 uM by radioactivity assay in presence of 20 uM ATP
[20] = target: Serine/threonine-protein kinase Nek6 (Homo sapiens) (UniProt Q9HC98); assay: Inhibition of NEK6 assessed as residual activity at 10 uM by radioactivity assay in presence of 50 uM ATP
Sequence of Serine/threonine-protein kinase Nek6 (Homo sapiens) (Q9HC98 whole entry): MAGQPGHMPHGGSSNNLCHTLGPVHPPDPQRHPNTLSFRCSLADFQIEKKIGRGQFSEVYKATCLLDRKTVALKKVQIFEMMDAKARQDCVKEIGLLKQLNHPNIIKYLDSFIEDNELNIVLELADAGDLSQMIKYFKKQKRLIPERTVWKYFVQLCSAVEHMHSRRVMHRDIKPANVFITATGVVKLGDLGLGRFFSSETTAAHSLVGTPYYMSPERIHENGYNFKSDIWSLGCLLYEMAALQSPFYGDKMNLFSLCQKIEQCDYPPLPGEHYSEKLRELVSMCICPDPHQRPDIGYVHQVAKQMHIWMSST

[21] = target: Mitogen-activated protein kinase 14 (Homo sapiens) (UniProt Q16539); assay: Inhibition of p38alpha MAPK assessed as residual activity at 10 uM by radioactivity assay in presence of 50 uM ATP
[22] = target: Phosphorylase b kinase gamma catalytic chain, skeletal muscle/heart isoform (Homo sapiens) (UniProt Q16816); assay: Inhibition of PHKG1 assessed as residual activity at 10 uM by radioactivity assay in presence of 50 uM ATP
[23] = target: Serine/threonine-protein kinase pim-2 (Homo sapiens) (UniProt Q9P1W9); assay: Inhibition of PIM2 assessed as residual activity at 10 uM by radioactivity assay in presence of 5 uM ATP
Sequence of Serine/threonine-protein kinase pim-2 (Homo sapiens) (Q9P1W9 whole entry, looked up): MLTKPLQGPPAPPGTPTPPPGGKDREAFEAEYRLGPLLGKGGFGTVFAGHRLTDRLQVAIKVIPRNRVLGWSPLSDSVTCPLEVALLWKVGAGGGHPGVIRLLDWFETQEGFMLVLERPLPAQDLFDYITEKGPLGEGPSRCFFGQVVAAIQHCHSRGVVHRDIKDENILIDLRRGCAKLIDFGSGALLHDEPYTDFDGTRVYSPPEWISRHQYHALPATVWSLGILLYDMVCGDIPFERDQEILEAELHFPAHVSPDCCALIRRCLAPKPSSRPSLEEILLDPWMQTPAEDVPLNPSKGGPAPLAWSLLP

[24] = target: Serine/threonine-protein kinase pim-3 (Homo sapiens) (UniProt Q86V86); assay: Inhibition of PIM3 assessed as residual activity at 10 uM by radioactivity assay in presence of 20 uM ATP
[25] = target: RAC-alpha serine/threonine-protein kinase (Homo sapiens) (UniProt P31749); assay: Inhibition of PKBalpha assessed as residual activity at 10 uM by radioactivity assay in presence of 5 uM ATP
[26] = target: MAP kinase-activated protein kinase 5 (Homo sapiens) (UniProt Q8IW41); assay: Inhibition of PRAK assessed as residual activity at 10 uM by radioactivity assay in presence of 20 uM ATP
[27] = target: Myosin light chain kinase, smooth muscle (Homo sapiens) (UniProt Q15746); assay: Inhibition of SmMLCK assessed as residual activity at 10 uM by radioactivity assay in presence of 50 uM ATP
[28] = target: Proto-oncogene tyrosine-protein kinase Src (Homo sapiens) (UniProt P12931); assay: Inhibition of Src assessed as residual activity at 10 uM by radioactivity assay in presence of 50 uM ATP
[29] = target: Tyrosine-protein kinase Yes (Homo sapiens) (UniProt P07947); assay: Inhibition of YES1 assessed as residual activity at 10 uM by radioactivity assay in presence of 20 uM ATP

## Nc1n[nH]c(N)c1/N=N/c1ccc(O)cc1
SNB-19
  GI50: 29.9 µM
SW-620
  GI50: 26.3 µM
NCI-H322M
  GI50: 25.1 µM
MOLT-4
  GI50: 13.5 µM
LOX IMVI
  GI50: 4.1 µM
SK-MEL-2
  GI50: 14.4 µM
NCI/ADR-RES
  GI50: 22.5 µM
DU-145 [1]
  GI50: 17 µM
[2]
  Activity: 20%
HMEC-1
  Activity: inactive
DU-145 [3]
  Activity: Active
[4]
  inhibition: Active
[5]
  Activity: 62%
[6]
  Activity: 52%
[7]
  Activity: 105%
[8]
  Activity: 17%
[9]
  Activity: 68%
[10]
  Activity: 57%
[11]
  Activity: 48%
[12]
  Activity: 45%
[13]
  Activity: 29%
[14]
  Activity: 113%
[15]
  Activity: 102%
[16]
  Activity: 37%
[17]
  Activity: 89%
[18]
  Activity: 46%
[19]
  Activity: 77%
[20]
  Activity: 114%
[21]
  Activity: 101%
[22]
  Activity: 29%
[23]
  Activity: 69%
[24]
  Activity: 19%
[25]
  Activity: 100%
[26]
  Activity: 43%
[27]
  Activity: 54%
[28]
  Activity: 62%
[29]
  Activity: 79%
